As usually defined, the pIC50 is −log10 of the IC50, conventionally taken in molar units. By inhibition is commonly meant the change of the read-out against control, counted positive when it falls.

The target of experiment [1] is Tyrosine-protein kinase JAK1 (Homo sapiens, UniProt P23458).
Experiment [2] concerns HEL 92.1.7. In words: cells. As to conditions: Homo sapiens, HEL 92.1.7, 72 h. The format is functional.
Description: Antiproliferative activity against HEL 92.1.7 cells assessed as viable cells at 10 uM measured after 3 days by WST-1 assay
Experiment [3] deals with T1, Tyrosine-protein kinase JAK3 (Homo sapiens, UniProt P52333).
T1 sequence (P52333 whole entry): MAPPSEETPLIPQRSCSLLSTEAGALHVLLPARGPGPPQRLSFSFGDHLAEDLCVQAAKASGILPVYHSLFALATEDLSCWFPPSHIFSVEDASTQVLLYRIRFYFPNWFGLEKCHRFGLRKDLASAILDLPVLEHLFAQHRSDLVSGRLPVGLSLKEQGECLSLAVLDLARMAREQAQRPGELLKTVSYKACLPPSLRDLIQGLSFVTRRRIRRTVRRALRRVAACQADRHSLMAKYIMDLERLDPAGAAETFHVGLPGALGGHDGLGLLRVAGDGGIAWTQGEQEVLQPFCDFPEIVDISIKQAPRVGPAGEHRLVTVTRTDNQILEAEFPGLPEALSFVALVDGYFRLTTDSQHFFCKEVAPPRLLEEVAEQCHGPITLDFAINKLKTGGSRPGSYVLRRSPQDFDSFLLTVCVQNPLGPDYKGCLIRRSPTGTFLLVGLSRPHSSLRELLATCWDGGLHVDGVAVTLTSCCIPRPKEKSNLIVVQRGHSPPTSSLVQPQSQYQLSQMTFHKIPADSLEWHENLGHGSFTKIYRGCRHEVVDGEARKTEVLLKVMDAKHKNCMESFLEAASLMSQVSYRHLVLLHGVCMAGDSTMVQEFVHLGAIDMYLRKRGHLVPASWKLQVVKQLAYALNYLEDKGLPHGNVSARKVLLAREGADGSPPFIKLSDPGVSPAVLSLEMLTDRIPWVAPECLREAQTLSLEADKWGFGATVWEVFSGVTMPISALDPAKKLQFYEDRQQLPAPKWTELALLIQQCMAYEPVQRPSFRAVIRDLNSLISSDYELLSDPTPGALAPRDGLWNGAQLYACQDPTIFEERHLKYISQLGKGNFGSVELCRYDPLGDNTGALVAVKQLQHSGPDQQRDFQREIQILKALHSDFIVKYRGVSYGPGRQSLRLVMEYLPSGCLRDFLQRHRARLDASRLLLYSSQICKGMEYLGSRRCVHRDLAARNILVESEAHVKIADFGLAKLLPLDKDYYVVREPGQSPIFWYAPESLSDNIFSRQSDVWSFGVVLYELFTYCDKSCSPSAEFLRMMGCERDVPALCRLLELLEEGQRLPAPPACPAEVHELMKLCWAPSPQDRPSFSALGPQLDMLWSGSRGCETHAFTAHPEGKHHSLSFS
Description: Inhibition of JAK3 (unknown origin) measured after 1 hr in presence of ATP by TR-FRET assay

Experiment [4] relates to HEL 92.1.7. The format is functional, Homo sapiens.
Description: Antiproliferative activity against HEL 92.1.7 cells assessed as inhibition of cell growth
Experiment [5] has as its system HEL 92.1.7. In words: cells. As to conditions: Homo sapiens, HEL 92.1.7, 72 h.
Description: Antiproliferative activity against HEL 92.1.7 cells assessed as viable cells measured after 3 days by WST-1 assay
Experiment [6] concerns HCC827. The format is functional, Homo sapiens. As to conditions: at 30 µM.
Description: Cytotoxicity against wild-type human HCC827 cells at 30 uM measured after 72 hrs by MTT assay

pIC50: −log10 of the molar value.

Chain of Tyrosine-protein kinase JAK1 (P23458 whole entry): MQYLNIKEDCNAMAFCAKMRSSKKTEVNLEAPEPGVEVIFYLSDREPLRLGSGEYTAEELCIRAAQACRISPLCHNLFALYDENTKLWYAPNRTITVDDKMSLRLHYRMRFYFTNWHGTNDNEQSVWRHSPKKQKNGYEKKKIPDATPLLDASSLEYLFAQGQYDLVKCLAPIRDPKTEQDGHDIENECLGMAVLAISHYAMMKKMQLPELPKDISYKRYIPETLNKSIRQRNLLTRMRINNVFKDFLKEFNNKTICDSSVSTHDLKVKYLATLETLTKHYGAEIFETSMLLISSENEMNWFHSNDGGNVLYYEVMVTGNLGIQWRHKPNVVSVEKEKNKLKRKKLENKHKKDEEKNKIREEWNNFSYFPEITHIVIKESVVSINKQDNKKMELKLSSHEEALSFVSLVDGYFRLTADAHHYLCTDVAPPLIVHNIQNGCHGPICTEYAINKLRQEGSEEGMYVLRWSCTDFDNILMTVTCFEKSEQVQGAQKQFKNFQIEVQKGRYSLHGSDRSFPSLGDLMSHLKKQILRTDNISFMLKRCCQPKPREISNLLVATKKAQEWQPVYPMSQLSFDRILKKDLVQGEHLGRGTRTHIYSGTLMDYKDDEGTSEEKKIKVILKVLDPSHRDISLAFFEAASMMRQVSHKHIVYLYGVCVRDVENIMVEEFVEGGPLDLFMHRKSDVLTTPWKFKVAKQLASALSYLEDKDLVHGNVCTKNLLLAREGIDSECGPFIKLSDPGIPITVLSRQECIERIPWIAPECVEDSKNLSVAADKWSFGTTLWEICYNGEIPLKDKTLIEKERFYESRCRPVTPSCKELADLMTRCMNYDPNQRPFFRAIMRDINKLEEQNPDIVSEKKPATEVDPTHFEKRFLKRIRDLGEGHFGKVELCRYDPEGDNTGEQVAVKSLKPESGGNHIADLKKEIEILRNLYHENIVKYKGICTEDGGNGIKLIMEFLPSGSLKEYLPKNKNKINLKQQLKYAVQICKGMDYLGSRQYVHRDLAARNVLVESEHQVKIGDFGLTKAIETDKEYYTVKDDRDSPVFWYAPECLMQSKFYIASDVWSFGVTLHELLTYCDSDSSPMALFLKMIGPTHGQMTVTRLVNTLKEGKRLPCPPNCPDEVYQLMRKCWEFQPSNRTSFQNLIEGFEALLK

For `Cc1nn(CCCC#N)nc1-c1ncnc2[nH]ccc12`, the negative-log IC50 (pIC50) was 7.14 in experiment [1] and 5.75 in experiment [3]. In experiment [2], this compound gave an inhibition at 10 µM of 65.3%.

In experiment [1], `Cc1nn(CCCCCC#N)nc1-c1ncnc2[nH]ccc12` had a pIC50 of 6.73.

Turning to `Cc1nn(CC2CCC2)nc1-c1ncnc2[nH]ccc12`, in experiment [2], the inhibition at 10 µM stood at 49.8%.

`C=C(C)Cn1nc(C)c(-c2ncnc3[nH]ccc23)n1`: the pIC50 in experiment [1] was 6.85. Besides, the inhibition at 10 µM in experiment [2] worked out at 52.7%.

In experiment [1], `Cc1nn(CCCCC#N)nc1-c1ncnc2[nH]ccc12` had a negative logarithm of the IC50 (pIC50) of 6.86. For the same compound, 10 µM produced 41.3% inhibition in experiment [2].

`Cc1nn(CC2CCCC2)nc1-c1ncnc2[nH]ccc12` yielded an inhibition at 10 µM in experiment [2] of 64.1%.

`Cc1nn(CCCC(F)(F)F)nc1-c1ncnc2[nH]ccc12` gave a negative logarithm of the IC50 (pIC50) in experiment [1] of 7.09. The compound also returned an inhibition at 10 µM in experiment [2] of 9.1%.

Turning to `Cc1nn(CC2CC2)nc1-c1ncnc2[nH]ccc12`, the pIC50 in experiment [1] is 6.35; in experiment [3], 5.61. In addition, in experiment [2], the inhibition at 10 µM stood at 44.8%.

As for `N#CC[C@H](C1CCCC1)n1cc(-c2ncnc3[nH]ccc23)cn1` [RUXOLITINIB], the “growth inhibition (GI)” value in experiment [4] was found to be 55%. Further, the negative logarithm of the IC50 (pIC50) in experiment [5] was 4.83. Further, the “inhibition (INH)” value in experiment [6] is 16.6%.

These data come from ChEMBL document CHEMBL4428074, “The discovery of 2,5-isomers of triazole-pyrrolopyrimidine as selective Janus kinase 2 (JAK2) inhibitors versus JAK1 and JAK3” (Bioorg Med Chem, 2016).
